Experimental data as given in PubChem BioAssay (NCI).
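Each compound was tested at five concentrations against cells in 96-well plates for 48 hours. TGI: concentration producing complete growth inhibition.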

Tested on: RXF 393 renal
Assay: growth of human tumour cells (NCI), 48 h

Going from `O=C1NC(=S)NC(=O)C1C(c1ccc(O)cc1)C1C(=O)NC(=S)NC1=O` to `CCOC(=O)c1ccc(NCc2ccc3oc(=O)c(-c4ccccc4)nc3c2)cc1`, the TGI falls from greater than 100 µM to 87.4 µM.

First: N#C/C(=C/NC(N)=S)C(N)=O
Second: Cc1cc(N(CCC#N)CCC#N)ccc1/C=C(\NC(=O)/C=C/c1ccccc1)C(N)=O
The TGI of the first is higher: greater than 100 µM for the first, 21 µM for the second.

`CN(C)CC1CCCC(CN(C)C)C1OC(=O)c1ccccc1` (stereo not given) and `CC(C)=CCC(O)[C@](C)(O)[C@H]1[C@H](O)C[C@@]2(C)[C@@H]3CCc4cc(O)c(OC5OC(CO)C(O)C(O)C5O)cc4C3(C)C(=O)C[C@]12C` (stereo not given in full) cannot be ordered by TGI: greater than 100 µM for the first, greater than 100 µM for the second.

Going from `CN=C(SC)N(C)c1nc(=[N+](C)C)ss1` to `C[Si](C)(C)OC1CC(=O)OC1n1cc(F)c(=O)[nH]c1=O` (stereo not given), the TGI falls from greater than 100 µM to 98.4 µM.

Tested on: COLO 205 colon
Assay: growth of human tumour cells (NCI), 48 h

First: O=c1cc(-c2ccc(Oc3ccccc3)cc2)[nH]c2cc3c(cc12)OCO3
Second: CCOC(=O)c1ccc(NCc2ccc3oc(=O)c(-c4ccccc4)nc3c2)cc1
The TGI of the first is higher: greater than 100 µM for the first, 62.6 µM for the second.

Compared with `CC(C)=C[C@H]1CCC2(OCCO2)[C@]1(C)CO`, `CC(C)=C[C@H]1CCC2(OCCO2)[C@]1(C)COCc1ccccc1` is lower in TGI: greater than 100 µM for the first, 32.3 µM for the second.

`O=C(/C=C/c1ccc2ccccc2c1)NCc1ccc(C(=O)NCCc2ccccc2)cc1` and `Cc1cc(N(CCC#N)CCC#N)ccc1/C=C(\NC(=O)/C=C/c1ccccc1)C(N)=O` cannot be ordered by TGI: greater than 100 µM for the first, greater than 100 µM for the second.

Going from `CCOC(=O)CC(C)C1(C(=O)OCC)CCCCC1=O` (stereo not given) to `CC(C)OC(=O)/C=C/C(=O)O/C=C/[N+](=O)[O-]`, the TGI falls from greater than 100 µM to 38.3 µM.

`Nc1nc(-[n+]2ccc(-c3ccncc3)cc2)nc(Cl)c1Cl` and `c1ccc(CNc2nncc3[nH]cnc23)cc1` cannot be ordered by TGI: greater than 100 µM for the first, greater than 100 µM for the second.

Going from `CC(=O)O[C@H]1C(=O)[C@@]2(C)C(C(OC(=O)c3ccccc3)[C@]3(O)CC(OC(=O)C(O)C(NC(=O)c4ccc(C(F)(F)F)cc4)c4ccccc4)C(C)=C1C3(C)C)[C@]1(OC(C)=O)CO[C@@H]1C[C@@H]2O` (stereo not given in full) to `O=Cc1ccccc1COC(=O)c1cc(C(=O)OCc2ccccc2C=O)c(C(=O)OCc2ccccc2C=O)cc1C(=O)OCc1ccccc1C=O`, the TGI rises from 0.153 µM to greater than 100 µM.

`COC(=O)CC1N=C(NC#N)N(CCc2c[nH]c3ccccc23)C1=O` (stereo not given) and `CCOC1=NC(O)c2cccn2-c2sccc21` (stereo not given) cannot be ordered by TGI: greater than 100 µM for the first, greater than 100 µM for the second.

Going from `COC1=C(OC)C(=O)C(Cc2c(C)nc3sccn23)=C(C)C1=O` to `CCN(CC)CCSc1c2cc(OC)ccc2nc2ccc(OC)cc12`, the TGI falls from 26.8 µM to 4.14 µM (6.5-fold).

`CCOc1ncn(-c2ccc(NC(=S)NC3OC(CO)C(O)C(O)C3O)cc2)n1` (stereo not given) and `Nc1nc([O-])c2c(n1)[n+](C1OC(CO)C(O)C1O)cn2CCO` (stereo not given) cannot be ordered by TGI: greater than 100 µM for the first, greater than 100 µM for the second.

Compared with `Cn1c(O)c(C(=O)NC2CCCCC2)c(=O)n(C)c1=S`, `CC1(C)C[C@@H]2C1CCC1(C)CC2(O)CC[C@H]1O` (stereo not given in full) is higher in TGI: 4.42 µM for the first, greater than 100 µM for the second.

Going from `CC(CC[C@@]1(C)C(=O)CCC2O[C@]21C)[C@H]1C[C@@H](c2ccoc2)OC1=O` (stereo not given in full) to `CC(C)=CCC(O)[C@](C)(O)[C@H]1[C@H](O)C[C@@]2(C)[C@@H]3CCc4cc(O)c(OC5OC(CO)C(O)C(O)C5O)cc4C3(C)C(=O)C[C@]12C` (stereo not given in full), the TGI rises from 52.1 µM to greater than 100 µM.

`O=C1NC(=S)NC(=O)C1C(c1ccc(O)cc1)C1C(=O)NC(=S)NC1=O` and `C[Si](C)(C)OC1CC(=O)OC1n1cc(F)c(=O)[nH]c1=O` (stereo not given) cannot be ordered by TGI: greater than 100 µM for the first, greater than 100 µM for the second.

`N#C/C(=C/NC(N)=S)C(N)=O` and `CN(C)CC1CCCC(CN(C)C)C1OC(=O)c1ccccc1` (stereo not given) cannot be ordered by TGI: greater than 100 µM for the first, greater than 100 µM for the second.

Tested on: SNB-75 CNS
Assay: growth of human tumour cells (NCI), 48 h

`O=c1cc(-c2ccc(Oc3ccccc3)cc2)[nH]c2cc3c(cc12)OCO3` and `CCOC(=O)c1ccc(NCc2ccc3oc(=O)c(-c4ccccc4)nc3c2)cc1` cannot be ordered by TGI: greater than 100 µM for the first, greater than 100 µM for the second.

`CC(C)=C[C@H]1CCC2(OCCO2)[C@]1(C)CO` and `CC(C)=C[C@H]1CCC2(OCCO2)[C@]1(C)COCc1ccccc1` cannot be ordered by TGI: greater than 100 µM for the first, greater than 100 µM for the second.

`O=C(/C=C/c1ccc2ccccc2c1)NCc1ccc(C(=O)NCCc2ccccc2)cc1` and `Cc1cc(N(CCC#N)CCC#N)ccc1/C=C(\NC(=O)/C=C/c1ccccc1)C(N)=O` cannot be ordered by TGI: greater than 100 µM for the first, greater than 100 µM for the second.

`CCOC(=O)CC(C)C1(C(=O)OCC)CCCCC1=O` (stereo not given) and `CC1(C)C[C@@H]2C1CCC1(C)CC2(O)CC[C@H]1O` (stereo not given in full) cannot be ordered by TGI: greater than 100 µM for the first, greater than 100 µM for the second.

First: CC(=O)O[C@H]1C(=O)[C@@]2(C)C(C(OC(=O)c3ccccc3)[C@]3(O)CC(OC(=O)C(O)C(NC(=O)c4ccc(C(F)(F)F)cc4)c4ccccc4)C(C)=C1C3(C)C)[C@]1(OC(C)=O)CO[C@@H]1C[C@@H]2O (stereo not given in full)
Second: O=Cc1ccccc1COC(=O)c1cc(C(=O)OCc2ccccc2C=O)c(C(=O)OCc2ccccc2C=O)cc1C(=O)OCc1ccccc1C=O
The TGI of the first is 7300-fold lower: 0.00891 µM for the first, 65.4 µM for the second.

`COC(=O)CC1N=C(NC#N)N(CCc2c[nH]c3ccccc23)C1=O` (stereo not given) and `c1ccc(CNc2nncc3[nH]cnc23)cc1` cannot be ordered by TGI: greater than 100 µM for the first, greater than 100 µM for the second.

`CCOc1ncn(-c2ccc(NC(=S)NC3OC(CO)C(O)C(O)C3O)cc2)n1` (stereo not given) and `Nc1nc([O-])c2c(n1)[n+](C1OC(CO)C(O)C1O)cn2CCO` (stereo not given) cannot be ordered by TGI: greater than 100 µM for the first, greater than 100 µM for the second.

`N#C/C(=C/NC(N)=S)C(N)=O` and `CN(C)CC1CCCC(CN(C)C)C1OC(=O)c1ccccc1` (stereo not given) cannot be ordered by TGI: greater than 100 µM for the first, greater than 100 µM for the second.

First: CN=C(SC)N(C)c1nc(=[N+](C)C)ss1
Second: CCN(CC)CCSc1c2cc(OC)ccc2nc2ccc(OC)cc12
The TGI of the first is higher: greater than 100 µM for the first, 31.8 µM for the second.

`CC(C)=CCC(O)[C@](C)(O)[C@H]1[C@H](O)C[C@@]2(C)[C@@H]3CCc4cc(O)c(OC5OC(CO)C(O)C(O)C5O)cc4C3(C)C(=O)C[C@]12C` (stereo not given in full) and `C[Si](C)(C)OC1CC(=O)OC1n1cc(F)c(=O)[nH]c1=O` (stereo not given) cannot be ordered by TGI: greater than 100 µM for the first, greater than 100 µM for the second.

Tested on: HS 578T breast
Assay: growth of human tumour cells (NCI), 48 h

In the case of `COC1=C(OC)C(=O)C(Cc2c(C)nc3sccn23)=C(C)C1=O`, the TGI is reported as 58.5 µM.
